# Source: patent publication US12725435B2, “FIM-CNN for detection of viable cells and/or particulate impurities” (Coriolis Pharma Research GmbH, priority 2021, dated 2026)
# What was measured:
# [1] = test system: Jurkat cells; assay: Annexin V-FITC / PI fluorescence-based flow cytometry assay (apoptosis, necrosis)
# Method: (§1) Cell apoptosis and necrosis were determined by imaging flow cytometry after labelling of the cells with FITC and PI. Sample preparation was carried out according to the Dead Cell Apoptosis Kit instructions. After incubation for 15 min in the dark at room temperature samples were kept on wet ice until analysis. After adjusting the excitation power of the FlowSight imaging flow cytometer to 4 mW, the same instrument settings as described in for the calcein-AM assay above was used. Brightfield as well as fluorescence images in channels 02 (532/55 nm) for FITC and channel 4 (610/30 nm) for PI were recorded. Appropriate morphological filters based on mean intensity, area, aspect ratio and modulation from channel 09 were applied to discriminate between single cells and cell aggregates or debris particles. Once single cells were selected based on brightfield images, mean intensity values from channel 02 (fluorescence) were plotted against the particle area (erode mask) where the positively stained cells were classified as viable.
# For selection of necrotic cells, two separate methods were used to induce cell necrosis. […] Images of debris particles were manually selected from measured suspensions of cells submitted to vortexing for approximately 2 min or two freeze-thaw cycles (−140° C.-37° C.).
# [2] = in vitro; settings: human
# Source text: (§2) Generation of particle images for population discrimination. The CNN was retrained on manually labelled images (4,000-4,500) of each of the three populations: viable cells, necrotic cells and debris particles. […] For selection of necrotic cells, two separate methods were used to induce cell necrosis. […] In order to further define image populations of viable and necrotic cells for the network fine-tuning, morphological parameters, such as aspect ratio, circle fit, convexity, sigma intensity and symmetry, of the two populations were used. Only particles (cells) of morphological parameter values falling between the 10th and 90th percentile of the manually selected population as viable and necrotic cells were taken for input to the training of the model. Images of debris particles were manually selected from measured suspensions of cells submitted to vortexing for approximately 2 min or two freeze-thaw cycles (−140° C.-37° C.).
# as §1
# [3] = test system: Jurkat cells; assay: in vitro
# Source text: as §2, §1
# [4] = test system: Jurkat cells; assay: FIM-CNN (FlowCam) cell counts and viability after forced degradation; format: cell-based
# Method: Freeze-thaw stress. […] Further, five 1-ml aliquots were prepared in 1.8-ml Nalgene cryovials, which were submitted to freezing at −18° C. for 3 hours. This amount of time was sufficient for complete freezing of the aliquots. Prior to analysis, the samples were thawed for 2 min at 37° C., pooled and washed with fresh RPMI medium. Control samples were stored at 20° C. for 3 hours and were otherwise treated identically as the freeze-thawed samples. Shaking stress. […] The cryovials were submitted to shaking by constant horizontal agitation at 185 rpm at 25° C. by using an IC 4000 shaker (IKA, Germany). Analysis of cell suspensions of pooled cell aliquots was performed following 3 hours of shaking. Control samples were stored statically and protected from light at 25° C. in cryovials, and subsequently pooled. Flow imaging microscopy (FlowCam, FIM). Cells (viable and necrotic) and debris particles were quantified by using a FlowCam 8100 (Fluid Imaging Technologies, Scarborough, USA) equipped with a 50-μflow cell. […] In total, a sample volume of 140 μL was measured with an efficiency of approximately 63% (i.e., the imaged sample volume was ca. 87 μL). Particles imaged within the flow cell were detected with intensity thresholds of 12 for light and dark pixels. […] Collected images were not sorted by using any morphological filters and samples were measured in triplicate, unless otherwise stated. Image analysis using convolutional neural networks. Particle images captured by using FlowCam were analyzed by using convolutional neural networks (CNN). […] Briefly, the VGG-19 network using rectified linear unit activation functions, punctuated with max-pooling and dropout layers, was pre-trained on the ImageNet dataset (http://image-netorg). The re-training of the network was performed with the first ten layers frozen in order to save computation time and improve accuracy of the model by preserving its pre-learned feature recognition capabilities. For fine-tuning the dataset was split into an 8:1:1 ratio for training, validation and testing, respectively. […]
# [5] = calcein-AM assay of cell viability (imaging flow cytometry); format: cell-based; settings: human, Jurkat cells; irrespective of DMSO content (2.5%, 5%, 10% v/v) and time point (T0, freeze-thaw, control)
# Method: Freeze-thaw stress. DMSO, cooled on wet ice, was slowly added to cell suspensions (placed on wet ice) to reach a target concentration 1%, 2.5%, 5% and 10% (v/v) at a cell concentration of 1×10^6 cells/ml. Further, five 1-ml aliquots were prepared in 1.8-ml Nalgene cryovials, which were submitted to freezing at −18° C. for 3 hours. This amount of time was sufficient for complete freezing of the aliquots. Prior to analysis, the samples were thawed for 2 min at 37° C., pooled and washed with fresh RPMI medium. Control samples were stored at 20° C. for 3 hours and were otherwise treated identically as the freeze-thawed samples.
# Imaging flow cytometry. To assess cell viability based on cell metabolism, imaging flow cytometry was used in combination with the membrane-permeable dye calcein-AM (calcein-AM assay), at a final concentration of 6.3 nM in the sample to be analyzed. […] Subsequently, samples were analyzed by using an Amnis FlowSight imaging flow cytometer (Luminex, Seattle, USA) and data was analyzed using IDEAS 6.2.183 (Luminex, Seattle, USA) image analysis software. […] The side scatter laser was set to 10 mW and the 488 nm fluorescence excitation laser was set to 12 mW. Images of the calcein-AM stained cells were recorded in channel 02 (532/55 nm). […]
# [6] = staurosporin 1 μM to 500.000 cells/mL, Annexin V-FITC & PI double staining
# [7] = cell suspensions frozen with 2.5% (v/v) DMSO
smiles,measurement,setting,value
CN[C@@H]1C[C@H]2O[C@@](C)([C@@H]1OC)n1c3ccccc3c3c4c(c5c6ccccc6n2c5c31)C(=O)NC4 [staurosporin],necrotic cells,[1]; [6],around 6%
same,viable cells,[1]; [6],~ 2%
"CCO [ethanol, reference compound]","viability at 90 min, 10 % (v/v)",[2],12.8%
"C[S+](C)[O-] [DMSO, dimethyl sulfoxide]",increase in apoptotic cell content,"[1]; human, 3 h",~2 fold
same,toxic effects of DMSO (PI assay),[3],loss of cell viability
same,drop in cell viability (PI assay),"[3]; 5% and 10% (v/v) DMSO, freeze-thawed and control samples compared to T0",ca. 10%
same,losses in viability (PI assay),[3]; [7],ca. 20%
same,reduction of cell counts,"[4]; 0% and 1% (v/v) DMSO, one freeze-thaw cycle (−18° C. 3 hours, thawing 2 min at 37° C.)",> 98%
same,losses in viability (FIM-CNN assay),[4]; [7],ca. 20%
same,toxic effects of DMSO (FIM),"[4]; exposure of 3 hours at RT, 10% (v/v)",loss of cell viability
same,viability,[5],85 to 90%
